Source: patent publication US20250312369A1, “ANTI-AGING AND ANTI-INFLAMMATORY COMPOSITIONS COMPRISING NICOTINAMIDE MONONUCLEOTIDE AND RESVERATROL AND USES THEREOF” (WONDERFEEL, priority 2022, published 2025)

Key:
[1] = system: human lung epithelial cell line (A549); test: LDH release after hydrogen peroxide and hypoxic injury in A549 cells; format: cell-based; details: 100 micromolar H2O2, 18 hours at 37° C., 95% nitrogen and 5% carbon dioxide, treatment agents 10 micromolar in the media
Protocol: In order to model cytoprotective effects of the invention, a reductionist in vitro model was employed wherein a human lung epithelial cell line (A549) was exposed to severe oxidant and hypoxic stress. Cultured A549 cells were placed in 96 well plates, incubated in Dulbecco's Modified Eagle's Medium (DMEM), and allowed to grow to confluence over 72 hours. Cellular injury was created by the addition into the media of 100 micromolar hydrogen peroxide (H2O2), followed by incubation at 37° C. for 18 hours in an atmosphere of 95% nitrogen and 5% carbon dioxide, which maintained a pH in the incubation media of 7.4. Three experimental arms were evaluated, using quadruplicate replicates, as follows: a) media control, b) NMN, and c) NMN plus resveratrol and hydroxytyrosol. A control arm was examined that was not exposed to hydrogen peroxide. The treatment agents were added such that their final concentration in the media was 10 micromolar. lactate dehydrogenase (LDH) was assayed in the media after 18 hours using a commercial kit, based upon a colorimetric change quantified by visible spectrophotometry.

[2] = prediabetic women, clinical trial 2021; cited from earlier work
[3] = animals and humans, even at high doses; cited from earlier work
[4] = system: sirtuin-1; details: 500 mg/day, healthy and slightly overweight subjects; cited from earlier work

## NC(=O)c1ccc[n+]([C@@H]2O[C@H](COP(=O)([O-])O)[C@@H](O)[C@H]2O)c1 [NMN, 3-carbamoyl-1-[5-O-(hydroxyphosphinato)-β-D-ribofuranosyl] pyridinium]
[1]
  reduction in the elevation in LDH release produced by addition of hydrogen peroxide alone: 14%
[2]
  muscular insulin sensitivity: improve muscular insulin sensitivity

## C[N+](C)(C)[C@@H](Cc1c[nH]c(=S)[nH]1)C(=O)[O-] [ergothioneine, (2S)-3-(2-sulfanylidene-2,3-dihydro-1H-imidazol-4-yl)-2-(trimethylazaniumyl)propanoate]
[3]
  toxicity or adverse effects associated with administration: no toxicity or adverse effects

## Oc1ccc(/C=C/c2cc(O)cc(O)c2)cc1 [resveratrol, 3,4′,5-trihydroxy-trans-stilbene]
[4]
  gene expression and serum concentration of sirtuin-1: higher gene expression and serum concentration of sirtuin-1
